The values that follow come from US20120077794A1, “BIS-PYRIDYLPYRIDONES AS MELANIN-CONCENTRATING HORMONE RECEPTOR 1 ANTAGONISTS” (GLAXSMITHKLINE LLC, priority 2009, published 2012).

SMILES strings stand for the structures. Where two headings read alike, the source gives them in different places.

This experiment addresses T1, hMCHR1 (Homo sapiens, UniProt Q99705).
T1 construct: expressed in transfected cells; host or cells: HEK293
The experiment in a line: MCHR1 pIC50 Determination FLIPR Assay. Type of experiment: cell-based. On the procedure:
MCHR1 pIC50 Determination FLIPR™ Assay: HEK293 cells stably transfected with hMCHR1 were propagated as adherent cultures at 37° C. in a humidified incubator. Cells were split 1:8 at 90% confluency two times per week. New cell stocks were recovered from storage every two months. Cells were plated in black 384-well plates (Greiner) 24 hours prior to assay at 15,000 cells/well in 50 μL DMEM/F12, 10% FBS, 2 mM I-glutamine. Compounds to be profiled were prepared by making a stock solution at 3×10^−3M in 100% DMSO. The stock solutions were serially diluted 1:4 in 100% DMSO using JANUS (PerkinElmer) liquid handling instrument to allow for an 11 point curve in singlicate. At the time of the assay, the media was removed from the cell plate by aspiration, followed by the addition of 20 μL of loading buffer (Calcium 4 Kit, […]). Following 50 min incubation at 37° C., 10 μL of compound was added to the plates via the FLIPR™ instrument ([…]). The plates were incubated at room temperature for 15 minutes along with an MCH peptide agonist challenge plate. On the FLIPR™, a basal response was collected over 10 seconds followed by the addition of 10 μL of MCH challenge concentration at 4XEC50. Data was collected over 4 minutes and subjected to a nonlinear regression analysis curve fitting program to generate pIC50s.

Setting [1] is: HEK293 cells stably transfected with hMCHR1, MCH challenge at 4XEC50, at least one experimental run, read-out: IC50 in the FLIPR assay.

T1 sequence (Q99705 whole entry): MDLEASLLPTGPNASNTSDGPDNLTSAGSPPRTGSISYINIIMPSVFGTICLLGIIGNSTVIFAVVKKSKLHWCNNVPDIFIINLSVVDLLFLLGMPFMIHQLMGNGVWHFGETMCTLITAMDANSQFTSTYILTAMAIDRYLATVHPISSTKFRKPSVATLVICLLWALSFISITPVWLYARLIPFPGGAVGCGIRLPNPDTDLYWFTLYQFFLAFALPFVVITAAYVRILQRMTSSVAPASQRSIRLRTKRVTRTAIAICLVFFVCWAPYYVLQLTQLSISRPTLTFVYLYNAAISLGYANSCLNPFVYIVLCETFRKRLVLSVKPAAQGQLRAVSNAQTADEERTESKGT

For `O=c1cc(OCc2ccc(Cl)cn2)ccn1-c1ccc(N2CCNCC2)nc1` [Example 2, 4-{[(5-chloro-2-pyridinyl)methyl]oxy}-6′-(piperazin-1-yl)-2H-1,3′-bipyridin-2-one], the IC50 (quantity and assay not stated, read-out: unlabelled value in the heading of Example 2) was determined as 0.088 µM.

On to `O=c1cc(OCc2ccc(Cl)cn2)ccn1-c1ccc(N2CCCNCC2)nc1` [Example 13], for which the IC50 under setting [1] amounted to 0.052 µM.

With `CC(C)[C@H]1CN(c2ccc(-n3ccc(OCc4ccc(Cl)cn4)cc3=O)cn2)CCN1C` [Example 19], the IC50 under setting [1] turned out to be 0.053 µM.

Take `O=c1cc(OCc2ccc(Cl)cn2)ccn1-c1ccc(N2CCC[C@@H]2CO)nc1` [Example 4, 4-{[(5-chloro-2-pyridinyl)methyl]oxy}-6′-{[(2R)-hydroxymethyl]pyrrolidin-1-yl}-2H-1,3′-bipyridin-2-one]: the IC50 under setting [1] came to 0.048 µM.
